# Reference: patent US9193731B2, “Antimicrobial compounds and methods of making and using the same” (Melinta Therapeutics, Inc., priority 2009, dated 2015)
# System: Escherichia coli strain ATCC25922
# Assay: standard microdilution assay to determine minimum inhibitory concentrations (MICs)
# Type: cell-based
# Settings: Escherichia coli strain ATCC25922, microdilution
# Summary of the method: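 Broth microdilution MIC against E. coli ATCC25922, following CLSI protocols, typically in a 100 microliter final volume. Results reported as +/− relative to a 16 micrograms/ml cutoff.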
row,Compound,E. coli ATCC25922 MIC
1,N=C(N)NCCCNCc1ccc(-n2cc3cc(-c4cc(OCC(F)CN)cc(-c5ccc([N+](=O)[O-])cc5)c4)[nH]c3nc2=O)cc1 (stereo not shown) [Compound 2027a],+ (a “+” indicates that the compound has an MIC value of 16 micrograms/ml or less)
2,NC(N)=NCCC(=O)NCc1ccc(-n2cc3cc(-c4ccc(S(=O)(=O)N(CCOc5ccc(F)cc5)C5CCNCC5)cc4)[nH]c3nc2=O)cc1 [Compound 1196],− (a “−” indicates that the compound has an MIC value greater than 16 micrograms/ml)
3,N=C(N)NCCCNCc1ccc(-n2cc3cc(-c4cc(OCC(F)CN)cc(N5CCNCC5)c4)[nH]c3nc2=O)cc1 (stereo not shown) [Compound 2005a],+ (a “+” indicates that the compound has an MIC value of 16 micrograms/ml or less)
4,N=C(N)NCCCNCc1ccc(-n2cc3cc(-c4cc(C(=O)N5Cc6ccccc6C5)cc(N5CCNCC5)c4)[nH]c3nc2=O)cc1 [Compound 981],+ (a “+” indicates that the compound has an MIC value of 16 micrograms/ml or less)
5,N=C(N)NCCCNCc1ccc(-c2cn3cc(CCc4cccc(OC(F)(F)F)c4)[nH]c3nc2=O)cc1 [Compound 975],− (a “−” indicates that the compound has an MIC value greater than 16 micrograms/ml)
6,N=C(N)NCCCNCc1ccc(-n2cc3cc(-c4cc(CCCCN)cc(S(=O)(=O)C(F)(F)F)c4)[nH]c3nc2=O)cc1 [Compound 2055a],+ (a “+” indicates that the compound has an MIC value of 16 micrograms/ml or less)
7,N=C(N)NCCCNCC(Cn1cc2cc(-c3ccc(S(=O)(=O)NC4CCNCC4)cc3)[nH]c2nc1=O)OCc1ccc(F)cc1 (stereo not shown) [Compound 1097],− (a “−” indicates that the compound has an MIC value greater than 16 micrograms/ml)
8,CN(Cc1cccc(F)c1)C(=O)c1cc(-c2cc3cn(-c4ccc(CNCCCNC(=N)N)cc4)c(=O)nc3[nH]2)cc(N2CCNCC2)c1 [Compound 957],+ (a “+” indicates that the compound has an MIC value of 16 micrograms/ml or less)
9,NCCCNCc1ccc(-n2cc3cc(-c4cc(C(=O)N(CCO)CCO)cc(N5CCNCC5)c4)[nH]c3nc2=O)cc1 [Compound 894],− (a “−” indicates that the compound has an MIC value greater than 16 micrograms/ml)
10,CC(N)CCOc1cccc(-c2cc3cn(-c4ccc(CNCCCNC(=N)N)cc4)c(=O)nc3[nH]2)c1 (stereo not shown) [Compound 1440],+ (a “+” indicates that the compound has an MIC value of 16 micrograms/ml or less)
11,CNCc1ccc(-n2cc3cc(-c4ccc(S(=O)(=O)N(CCCN5CCCCC5)C5CCNCC5)cc4)[nH]c3nc2=O)cc1 [Compound 959],− (a “−” indicates that the compound has an MIC value greater than 16 micrograms/ml)
12,N=C(N)NCCCNCc1ccc(-n2cc3cc(-c4cccc(S(=O)(=O)NCCN)c4)[nH]c3nc2=O)cc1 [Compound 2007a],+ (a “+” indicates that the compound has an MIC value of 16 micrograms/ml or less)
13,N=C(N)NCCCNCc1ccc(-n2cc3cc(-c4cc(CCCCN)ccc4F)[nH]c3nc2=O)cc1 [Compound 2091a],+ (a “+” indicates that the compound has an MIC value of 16 micrograms/ml or less)
14,N=C(N)NCCCNCc1ccc(-n2cc3cc(-c4ccc(S(=O)(=O)N(CC5CN(Cc6ccccc6)CCO5)C5CCNCC5)cc4)[nH]c3nc2=O)cc1 (stereo not shown) [Compound 988],+ (a “+” indicates that the compound has an MIC value of 16 micrograms/ml or less)
15,N=C(N)NCCCNCc1ccc(-n2cc3cc(-c4ccc(S(=O)(=O)CCCNC5CCNCC5)cc4)[nH]c3nc2=O)cc1 [Compound 1285],+ (a “+” indicates that the compound has an MIC value of 16 micrograms/ml or less)
16,N=C(N)NCCCNCc1ccc(-n2cc3cc(-c4cc(C(=O)N5CCN(CCO)CC5)cc(N5CCNCC5)c4)[nH]c3nc2=O)cc1 [Compound 861],− (a “−” indicates that the compound has an MIC value greater than 16 micrograms/ml)
17,N=C(N)NCCCNCc1ccc(-n2cc3cc(-c4cc(C(=O)N5CCS(=O)(=O)CC5)cc(N5CCNCC5)c4)[nH]c3nc2=O)cc1 [Compound 875],+ (a “+” indicates that the compound has an MIC value of 16 micrograms/ml or less)
18,N=C(N)NCCCNCc1ccc(-n2cc3cc(-c4cccc(SCCN)c4)[nH]c3nc2=O)cc1 [Compound 1451],+ (a “+” indicates that the compound has an MIC value of 16 micrograms/ml or less)
19,NCCCNCc1ccc(-n2cc3cc(-c4cc(C(=O)N5CCS(=O)(=O)CC5)cc(N5CCNCC5)c4)[nH]c3nc2=O)cc1 [Compound 874],− (a “−” indicates that the compound has an MIC value greater than 16 micrograms/ml)
20,N=C(N)NCCCNCc1ccc(-n2cc3cc(-c4ccc(S(=O)(=O)N(Cc5ccc(Cl)c(SC(F)(F)F)c5)C5CCNCC5)cc4)[nH]c3nc2=O)cc1 [Compound 759],+ (a “+” indicates that the compound has an MIC value of 16 micrograms/ml or less)

# Same assay, conditions: Escherichia coli, ATCC25922, Escherichia coli strain ATCC25922, microdilution; read-out: E. coli ATCC25922 MIC
row,MIC,Compound
1,> 16 µg/mL,N=C(N)CCCOc1cccc(-c2cc3cn(-c4ccc(CNCCCNC(=N)N)cc4)c(=O)nc3[nH]2)c1 [Compound 1191]
2,> 16 µg/mL,NCc1ccc(-n2cc3cc(-c4ccc(S(=O)(=O)N(CCCN5CCc6ccccc65)C5CCNCC5)cc4)[nH]c3nc2=O)cc1 [Compound 1067]
3,> 16 µg/mL,NCCCNCc1ccc(-n2cc3cc(-c4ccccc4Cl)[nH]c3nc2=O)cc1 [Compound 288]
4,> 16 µg/mL,NCc1ccc(-n2cc3cc(-c4ccc(S(=O)(=O)N(CCCc5ccc(F)cc5)C5CCNCC5)cc4)[nH]c3nc2=O)cc1 [Compound 1053]
5,> 16 µg/mL,O=C(NC1CCNCC1)c1ccc(-c2cc3cn(-c4ccc(CNCCCF)c(F)c4)c(=O)nc3[nH]2)c(F)c1 [Compound 280]
6,> 16 µg/mL,CNCc1ccc(-n2cc3cc(-c4ccc(S(=O)(=O)N(CCCN5Cc6ccccc6C5)C5CCNCC5)cc4)[nH]c3nc2=O)cc1 [Compound 1054]
7,< 16 µg/mL,NCCCN(CCCN)Cc1ccc(-n2cc3cc(-c4ccc(C(=O)NC5CCNCC5)cc4)[nH]c3nc2=O)cc1 [Compound 197]
8,> 16 µg/mL,NCCCNCc1ccc(-n2cc3cc(-c4ccncc4)[nH]c3nc2=O)cc1 [Compound 633]
9,> 16 µg/mL,NCCCN(CCCN)Cc1ccc(-n2cc3cc(-c4ccc(C(=O)O)cc4)[nH]c3nc2=O)cc1 [Compound 218]
10,< 16 µg/mL,N=C(N)NCCCNC(=O)c1ccc(-n2cc3cc(-c4cc(CCCCN)cc(C(F)(F)F)c4)[nH]c3nc2=O)cc1 [Compound 2034a]
11,> 16 µg/mL,N=C(N)NCCCNCc1ccc(-c2cn3cc(-c4ccc(C(=O)N5CCN(c6ncccn6)CC5)cc4)[nH]c3nc2=O)cc1 [Compound 721]
12,> 16 µg/mL,NCCCNCc1ccc(-n2cc3cc(-c4cc(F)c(F)c(F)c4)[nH]c3nc2=O)cc1 [Compound 306]
13,> 16 µg/mL,CC1CCCCN1CCCN(C1CCNCC1)S(=O)(=O)c1ccc(-c2cc3cn(-c4ccc(CN)cc4)c(=O)nc3[nH]2)cc1 (stereo not shown) [Compound 1051]
14,< 16 µg/mL,N=C(N)NCCCNCc1ccc(-n2cc3cc(-c4ccc(S(=O)(=O)N(CC5CC5)C5CCNCC5)cc4)[nH]c3nc2=O)cc1 [Compound 728]
15,> 16 µg/mL,NCCCOCc1ccc(-c2cn3cc(-c4ccc(Br)cc4)[nH]c3nc2=O)cc1 [Compound 902]
16,< 16 µg/mL,NCCCNCc1ccc(-n2cc3cc(-c4cccc(NCC(=O)N5CCNCC5)c4)[nH]c3nc2=O)cc1 [Compound 644]
17,> 16 µg/mL,NCCCNCc1ccc(-n2cc3cc(-c4ccsc4)[nH]c3nc2=O)cc1 [Compound 612]
